Measurements published in ChEMBL document CHEMBL3286379, “Design and synthesis of pyrimidine molecules endowed with thiazolidin-4-one as new anticancer agents” (Eur J Med Chem, 2014).

Key:
RPMI-8226 [1] = test: Growth inhibition of human RPMI8226 cells assessed as cell growth at 10 uM after 48 hrs by sulforhodamine B assay relative to control; assay type: functional; conditions: RPMI-8226, 48 h, read-out: Activity
HOP-62 = test: Growth inhibition of human HOP62 cells assessed as cell growth at 10 uM after 48 hrs by sulforhodamine B assay relative to control; assay type: functional; conditions: HOP-62, 48 h, read-out: Activity
NCI-H23 [2] = test: Growth inhibition of human NCI-H23 cells assessed as cell growth at 10 uM after 48 hrs by sulforhodamine B assay relative to control; assay type: functional; conditions: NCI-H23, 48 h, read-out: Activity
NCI-H460 = test: Growth inhibition of human NCI-H460 cells assessed as cell growth at 10 uM after 48 hrs by sulforhodamine B assay relative to control; assay type: functional; conditions: NCI-H460, 48 h, read-out: Activity
COLO 205 = test: Growth inhibition of human COLO205 cells assessed as cell growth at 10 uM after 48 hrs by sulforhodamine B assay relative to control; assay type: functional; conditions: COLO 205, 48 h, read-out: Activity
[3] = Growth inhibition of human HCC2998 cells assessed as cell growth at 10 uM after 48 hrs by sulforhodamine B assay relative to control; assay type: functional; conditions: HCC 2998, 48 h, read-out: Activity
HCT-116 = test: Growth inhibition of human HCT116 cells assessed as cell growth at 10 uM after 48 hrs by sulforhodamine B assay relative to control; assay type: functional; conditions: HCT-116, 48 h, read-out: Activity
KM12 = test: Growth inhibition of human KM12 cells assessed as cell growth at 10 uM after 48 hrs by sulforhodamine B assay relative to control; assay type: functional; conditions: KM12, 48 h, read-out: Activity
U-251 [4] = test: Growth inhibition of human U251 cells assessed as cell growth at 10 uM after 48 hrs by sulforhodamine B assay relative to control; assay type: functional; conditions: U-251, 48 h, read-out: Activity
SK-MEL-2 = test: Growth inhibition of human SK-MEL-2 cells assessed as cell growth at 10 uM after 48 hrs by sulforhodamine B assay relative to control; assay type: functional; conditions: SK-MEL-2, 48 h, read-out: Activity
SK-MEL-28 = test: Growth inhibition of human SK-MEL-28 cells assessed as cell growth at 10 uM after 48 hrs by sulforhodamine B assay relative to control; assay type: functional; conditions: SK-MEL-28, 48 h, read-out: Activity
[5] = Growth inhibition of human UACC62 cells assessed as cell growth at 10 uM after 48 hrs by sulforhodamine B assay relative to control; assay type: functional; conditions: UACC-62, 48 h, read-out: Activity
IGROV-1 = test: Growth inhibition of human IGROV1 cells assessed as cell growth at 10 uM after 48 hrs by sulforhodamine B assay relative to control; assay type: functional; conditions: IGROV-1, 48 h, read-out: Activity
[6] = Growth inhibition of human OVCAR8 cells assessed as cell growth at 10 uM after 48 hrs by sulforhodamine B assay relative to control; assay type: functional; conditions: OVCAR-8, 48 h, read-out: Activity
[7] = Growth inhibition of human NCI-ADR-RES cells assessed as cell growth at 10 uM after 48 hrs by sulforhodamine B assay relative to control; assay type: functional; conditions: read-out: Activity
786-0 [8] = test: Growth inhibition of human 786-0 cells assessed as cell growth at 10 uM after 48 hrs by sulforhodamine B assay relative to control; assay type: functional; conditions: 786-0, 48 h, read-out: Activity
A498 = test: Growth inhibition of human A498 cells assessed as cell growth at 10 uM after 48 hrs by sulforhodamine B assay relative to control; assay type: functional; conditions: A498, 48 h, read-out: Activity
[9] = Growth inhibition of human UO31 cells assessed as cell growth at 10 uM after 48 hrs by sulforhodamine B assay relative to control; assay type: functional; conditions: UO-31, 48 h, read-out: Activity
PC-3 = test: Growth inhibition of human PC3 cells assessed as cell growth at 10 uM after 48 hrs by sulforhodamine B assay relative to control; assay type: functional; conditions: PC-3, 48 h, read-out: Activity
MDA-MB-231 = test: Growth inhibition of human MDA-MB-231 cells assessed as cell growth at 10 uM after 48 hrs by sulforhodamine B assay relative to control; assay type: functional; conditions: MDA-MB-231, 48 h, read-out: Activity
T47D = test: Growth inhibition of human T47D cells assessed as cell growth at 10 uM after 48 hrs by sulforhodamine B assay relative to control; assay type: functional; conditions: read-out: Activity
MDA-MB-468 = test: Growth inhibition of human MDA-MB-468 cells assessed as cell growth at 10 uM after 48 hrs by sulforhodamine B assay relative to control; assay type: functional; conditions: MDA-MB-468, 48 h, read-out: Activity
CCRF-CEM = test: Growth inhibition of human CCRF-CEM cells after 48 hrs by sulforhodamine B assay; assay type: functional
RPMI-8226 [10] = test: Growth inhibition of human RPMI8226 cells after 48 hrs by sulforhodamine B assay; assay type: functional; conditions: RPMI-8226, 48 h
NCI-H23 [11] = test: Growth inhibition of human NCI-H23 cells after 48 hrs by sulforhodamine B assay; assay type: functional; conditions: NCI-H23, 48 h
U-251 [12] = test: Growth inhibition of human U251 cells after 48 hrs by sulforhodamine B assay; assay type: functional; conditions: U-251, 48 h
786-0 [13] = test: Growth inhibition of human 786-0 cells after 48 hrs by sulforhodamine B assay; assay type: functional; conditions: 786-0, 48 h
SN12C = test: Growth inhibition of human SN12C cells after 48 hrs by sulforhodamine B assay; assay type: functional
Rattus norvegicus = test: Hepatotoxicity in rat assessed as SGPT level at 0.12 mg/kg, po after 12 days (reference value: 31.17 +/- 0.39 U/mL); assay type: toxicity, organism-based; design: dose 0.12 mg/kg, route oral; conditions: in vivo, 288 h
[14] = Growth inhibition of human HOP92 cells assessed as cell growth at 10 uM after 48 hrs by sulforhodamine B assay relative to control; assay type: functional; conditions: HOP-92, 48 h, read-out: Activity
[15] = read-out: LC50 (the source's name)
[16] = read-out: pLC50 (the source's name) (converted)

Compound `Nc1nc(-c2ccccc2Cl)cc(-c2ccc(Cl)cc2Cl)n1` has a growth at 10 µM (RPMI-8226 [1]) of 35.2%, a growth at 10 µM (HOP-62) of 76.2% and a growth at 10 µM (NCI-H23 [2]) of 75.4%. It also gave a growth at 10 µM (NCI-H460) of 49.8%, a growth at 10 µM (COLO 205) of 64.9% and a growth at 10 µM [3] of 83.6%. For the same compound, the growth at 10 µM (HCT-116) was 33%, the growth at 10 µM (KM12) was 53.8% and the growth at 10 µM (U-251 [4]) was 65%. For the same compound, the growth at 10 µM (SK-MEL-2) was 96.2%, the growth at 10 µM (SK-MEL-28) was 88% and the growth at 10 µM [5] was 63.1%. It also gave a growth at 10 µM (IGROV-1) of 74.7%, a growth at 10 µM [6] of 71.2% and a growth at 10 µM [7] of 79.8%. The growth at 10 µM (786-0 [8]) was 90.2%, the growth at 10 µM (A498) was 53.7% and the growth at 10 µM [9] was 62.5%. For the same compound, the growth at 10 µM (PC-3) was 74.2%, the growth at 10 µM (MDA-MB-231) was 65% and the growth at 10 µM (T47D) was 63.7%. For the same compound, the growth at 10 µM (MDA-MB-468) was 18.6%, the GI50 (CCRF-CEM; read-out: GI50) was 4.17 µM and the CC50 (CCRF-CEM; [15]) was over 100 µM. It also gave a TGI (CCRF-CEM; read-out: TGI) of over 100 µM, a GI50 (CCRF-CEM; read-out: pGI50 (converted)) of 4.17 µM and a CC50 (CCRF-CEM; [16]) of over 100 µM. The TGI (CCRF-CEM; read-out: pTGI) was over 100 µM, the GI50 (RPMI-8226 [10]; read-out: GI50) was 3.1 µM and the CC50 (RPMI-8226 [10]; [15]) was over 100 µM. The TGI (RPMI-8226 [10]; read-out: TGI) was 17.6 µM, the GI50 (RPMI-8226 [10]; read-out: pGI50 (converted)) was 3.09 µM and the CC50 (RPMI-8226 [10]; [16]) was over 100 µM. The TGI (RPMI-8226 [10]; read-out: pTGI (converted)) was 17.4 µM, the GI50 (NCI-H23 [11]; read-out: GI50) was 12.3 µM and the CC50 (NCI-H23 [11]; [15]) was over 100 µM. The TGI (NCI-H23 [11]; read-out: TGI) was over 100 µM, the GI50 (NCI-H23 [11]; read-out: pGI50 (converted)) was 12.3 µM and the CC50 (NCI-H23 [11]; [16]) was over 100 µM. For the same compound, the TGI (NCI-H23 [11]; read-out: pTGI) was over 100 µM, the GI50 (U-251 [12]; read-out: GI50) was 11.1 µM and the CC50 (U-251 [12]; [15]) was over 100 µM. For the same compound, the TGI (U-251 [12]; read-out: TGI) was over 100 µM, the GI50 (U-251 [12]; read-out: pGI50 (converted)) was 11.2 µM and the CC50 (U-251 [12]; [16]) was over 100 µM. It also gave a TGI (U-251 [12]; read-out: pTGI) of over 100 µM, a GI50 (786-0 [13]; read-out: GI50) of 20.2 µM and a CC50 (786-0 [13]; [15]) of over 100 µM. For the same compound, the TGI (786-0 [13]; read-out: TGI) was over 100 µM, the GI50 (786-0 [13]; read-out: pGI50 (converted)) was 20.4 µM and the CC50 (786-0 [13]; [16]) was over 100 µM. It also gave a TGI (786-0 [13]; read-out: pTGI) of over 100 µM, a GI50 (SN12C; read-out: GI50) of 13.1 µM and a CC50 (SN12C; [15]) of over 100 µM. The TGI (SN12C; read-out: TGI) was over 100 µM, the GI50 (SN12C; read-out: pGI50 (converted)) was 13.2 µM and the CC50 (SN12C; [16]) was over 100 µM. For the same compound, the TGI (SN12C; read-out: pTGI) was over 100 µM, the Activity (Rattus norvegicus) was 29.11 U/ml and the growth at 10 µM [14] was 76.2%.

`O=C1CS/C(=N\c2nc(-c3ccccc3Cl)cc(-c3ccc(Cl)cc3Cl)n2)N1` gave a growth at 10 µM (RPMI-8226 [1]) of 99.6%, a growth at 10 µM (HOP-62) of 87.5% and a growth at 10 µM (NCI-H23 [2]) of 90%. The growth at 10 µM (NCI-H460) was 103%, the growth at 10 µM (COLO 205) was 100% and the growth at 10 µM [3] was 101%. For the same compound, the growth at 10 µM (HCT-116) was 94.5%, the growth at 10 µM (KM12) was 97.7% and the growth at 10 µM (U-251 [4]) was 105%. For the same compound, the growth at 10 µM (SK-MEL-2) was 97.9%, the growth at 10 µM (SK-MEL-28) was 102% and the growth at 10 µM [5] was 91.2%. It also gave a growth at 10 µM (IGROV-1) of 98.2%, a growth at 10 µM [6] of 96.1% and a growth at 10 µM [7] of 98.1%. The growth at 10 µM (786-0 [8]) was 99.7%, the growth at 10 µM (A498) was 101% and the growth at 10 µM [9] was 58%. For the same compound, the growth at 10 µM (PC-3) was 83.8%, the growth at 10 µM (MDA-MB-231) was 88.8% and the growth at 10 µM (T47D) was 86.5%. The growth at 10 µM (MDA-MB-468) was 93.5% and the growth at 10 µM [14] was 84.6%.

`O=C1N/C(=N/c2nc(-c3ccccc3Cl)cc(-c3ccc(Cl)cc3Cl)n2)S/C1=C/c1ccc(Cl)cc1` gave a growth at 10 µM (RPMI-8226 [1]) of 83.6%, a growth at 10 µM (HOP-62) of 80.2% and a growth at 10 µM (NCI-H23 [2]) of 76%. It also gave a growth at 10 µM (NCI-H460) of 87.2%, a growth at 10 µM (COLO 205) of 83.2% and a growth at 10 µM [3] of 102%. It also gave a growth at 10 µM (HCT-116) of 75.4%, a growth at 10 µM (KM12) of 79.8% and a growth at 10 µM (U-251 [4]) of 89.4%. For the same compound, the growth at 10 µM (SK-MEL-2) was 88.9%, the growth at 10 µM (SK-MEL-28) was 104% and the growth at 10 µM [5] was 70.2%. For the same compound, the growth at 10 µM (IGROV-1) was 82.3%, the growth at 10 µM [6] was 91.6% and the growth at 10 µM [7] was 90.1%. The growth at 10 µM (786-0 [8]) was 100%, the growth at 10 µM (A498) was 76.2% and the growth at 10 µM [9] was 55.2%. The growth at 10 µM (PC-3) was 79%, the growth at 10 µM (MDA-MB-231) was 63.2% and the growth at 10 µM (T47D) was 60.9%. For the same compound, the growth at 10 µM (MDA-MB-468) was 34.2% and the growth at 10 µM [14] was 55.1%.
